As a reminder, the MIC is the lowest concentration found to suppress growth.

Structures are written as SMILES. Read-outs that look alike come from different tables or passages of the source.

In assay [1] the test system is isogenic A. baylyi ADP1 panel encoding wildtype or mutant PBP3. As to the kind of experiment: Broth microdilution MIC, isogenic A. baylyi panel (PBP3 variants with or without overexpressed β-lactamases). The note with it: for MIC: Acinetobacter baylyi, A. baylyi. The class given is cell-based. The method, then:
To understand the effect of PBP3 variants on whole cell activity in the absence of other resistance determinants, the MIC values of sulbactam, SUL-DUR and comparator β-lactams were measured against an isogenic A. baylyi panel engineered to contain individual strains in which the endogenous PBP3 was replaced with the variant of interest.
Each of the A. baylyi panel members were then transformed with plasmids that constitutively expressed five distinct, representative β-lactamases commonly found in Acinetobacter clinical isolates (TEM-1, ADC-30, OXA-23, OXA-24 or OXA-66) and evaluated for changes in antibiotic susceptibility. […] . […] .
The isogenic A. baylyi panel used for chromosomal expression of various PBP3 mutants with or without constitutive expression of various β-lactamases were constructed as part of this study. The A. baylyi ADP1 PBP3 ORF was cloned into pUC19 with a gentamicin cassette inserted downstream of the PBP3 ORF for selection purposes. Additionally, 500 bp of flanking homology to the ADP1 genome were inserted upstream of the PBP3 ORF and downstream of the gentamicin cassette. […] Linear DNA consisting of the 500 bp upstream-PBP3-Gent-500 bp downstream fragment was cloned out of the pUC19 plasmid by PCR and used for transformation of the ADP1 strain. The strain was grown at 30°C overnight in LB medium shaking at 250 rpm. Seventy microliters of the overnight ADP1 culture were combined with 1 mL of fresh LB and 200 ng of linear DNA fragment and incubated for 5 h at 30°C and shaking at 200 rpm. Various dilutions of each culture were plated on LB agar supplemented with 10 µg/mL of gentamicin to select for transformants with successful chromosomal integrations. Integrants were verified by Sanger sequencing using purified genomic DNA.
For the constitutive expression of various β-lactamases, ORFs of bla TEM-1, bla ADC-30, bla OXA-23, bla OXA-24, and bla OXA-66 were cloned by PCR from various clinical strains that encode these genes and inserted into the pWH1266 plasmid modified to encode a kanamycin cassette for selection. These plasmids along with an empty vector were used to transform each of the A. baylyi ADP1 strains engineered above that encode wild-type PBP3 or variants. Transformations were carried out as done above with selection on LB agar supplemented with 20 µg/mL of kanamycin.
(§1) Antimicrobial susceptibility testing was performed using broth microdilution following standardized methods established by the Clinical Laboratory Standards Institute (CLSI) ([35], [36]). Quality control testing was performed as specified by CLSI using A. baumannii NCTC 13304 ([35]). MIC values were interpreted using CLSI breakpoints for all antimicrobial agents except those for which CLSI breakpoints are not available ([35]). SUL-DUR was tested as twofold dilutions of sulbactam in combination with a fixed concentration of 4 µg/mL durlobactam ([35]).
Background: Broth dilution looks for growth in wells or tubes with falling amounts of substance.

In assay [2] the test system is A. baumannii PBP3 S390T. Also noted: method as in McLeod et al. (2018). To be noted: average ± SD, ref McLeod et al. (2018); cited from earlier work.
Assay [3] deals with A. baumannii PBP3 S395F. Also noted: method as in McLeod et al. (2018). The note with it: average ± SD, ref McLeod et al. (2018); cited from earlier work.
Assay [4] has as its system A. baumannii wild-type PBP3. The experiment in a line: Acylation rate constant (kinact/Ki), fluorescence anisotropy competition with BOCILLIN
To be noted: Wildtype PBP3. (In general: In fluorescence polarisation assays a small probe gives low polarisation when free and higher when bound to something large.)

For assay [5], the system named is A. baumannii PBP3 H370Y. The assay is described as above.
In assay [6] the test system is A. baumannii PBP3 N377Y. The assay is described as above.
Assay [7] concerns A. baumannii PBP3 S390T. Described as above. The note with it: variant data from McLeod et al. (2018).
Assay [8] has as its system A. baumannii PBP3 N392T. The description is as above.
The test system of assay [9] is A. baumannii PBP3 S395F. The description is as above. To be noted: variant data from McLeod et al. (2018).
In assay [10] the test system is A. baumannii PBP3 Q488K. The description is as above.
Assay [11] relates to A. baumannii AB5075 and transposon mutants in efflux genes. The experiment in a line: Broth microdilution MIC, isogenic A. baumannii transposon mutants in efflux genes. The assay is classed as cell-based. To be noted: for In vitro activity (MIC): tested in duplicate. The protocol:
(§2) To further assess the role of efflux in SUL-DUR activity against Acinetobacter spp., two panels of A. baumannii isogenic strains were tested. The first consisted of 7 members of an A. baumannii transposon library ([28]) with single gene disruptions in the adeABC, adeIJK, or adeT loci as compared to the parent strain, AB5075. […] This panel of strains consists of four different point mutants in AdeR and five different point mutants in AdeS, which result in the upregulation of AdeABC expression. In addition, this panel contains chromosomal deletions of adeL and adeN, which result in overexpression of AdeFGH and AdeIJK, respectively ([29]).
The parent and each isogenic mutant strain in both panels was measured for susceptibility to sulbactam, durlobactam, SUL-DUR, imipenem, and gentamicin. […].
(§3) The AB5075 parent strain as well as transposon interrupted AdeABC, AdeIJK, and AdeT were purchased from the Manoil laboratory at the University of Washington from their arrayed transposon mutant collection ([28]). The KAB1544 parent as well as efflux pump regulator mutants and deletions were constructed as previously described ([29]).
as §1

The subject of assay [12] is A. baumannii KAB1544 and efflux overexpression mutants. As to the kind of experiment: Broth microdilution MIC, isogenic A. baumannii overexpression efflux mutants. The class given is cell-based. To be noted: for MIC: Acinetobacter baumannii. The method, then: as §2
In contrast, sulbactam, SUL-DUR, and imipenem MIC values were unaffected by these mutants (Table 4).
as §3, §1

Where [13] appears, read: AdeR A91V, AdeABC overexpressed, read-out: MIC.
The mark [14] stands for this setting: AdeR D20N, AdeABC overexpressed, read-out: MIC.
[15] abbreviates: AdeR E219A, AdeABC overexpressed, read-out: MIC.
[16] abbreviates: AdeR P116L, AdeABC overexpressed, read-out: MIC.
The mark [17] stands for this setting: AdeS A94V, AdeABC overexpressed, read-out: MIC.
Setting [18] is: AdeS G30D, AdeABC overexpressed, read-out: MIC.
Where [19] appears, read: AdeS G103D, AdeABC overexpressed, read-out: MIC.
The mark [20] stands for this setting: AdeS R152K, AdeABC overexpressed, read-out: MIC.
Setting [21] is: AdeS T153M, AdeABC overexpressed, read-out: MIC.
The mark [22] stands for this setting: Parent (KAB1544), no efflux pump overexpressed, read-out: MIC.

Regarding `C[C@H]1[C@H](NC(=O)/C(=N\OC(C)(C)C(=O)O)c2csc(N)n2)C(=O)N1S(=O)(=O)O` [aztreonam], the minimum inhibitory concentration (MIC) in assay [1] (PBP3 H370Y, overexpressed ADC-30) turned out to be 32 µg/mL; in [1] (PBP3 H370Y, overexpressed OXA-23), 64 µg/mL; in [1] (PBP3 H370Y, overexpressed OXA-24), 64 µg/mL; in [1] (PBP3 H370Y, overexpressed OXA-66) it was 64 µg/mL; in [1] (PBP3 H370Y, overexpressed TEM-1) it was 64 µg/mL; in assay [1] (PBP3 H370Y, β-lactamase None (empty vector)) it was 64 µg/mL. The MIC in [1] (PBP3 Wildtype, overexpressed ADC-30, read-out: MIC) came out at 32 µg/mL; in assay [1] (PBP3 Wildtype, overexpressed OXA-23, read-out: MIC), 64 µg/mL; in [1] (PBP3 Wildtype, overexpressed OXA-24, read-out: MIC), 32 µg/mL; in [1] (PBP3 Wildtype, overexpressed OXA-66, read-out: MIC) it was 32 µg/mL; in [1] (PBP3 Wildtype, overexpressed TEM-1, read-out: MIC), 32 µg/mL; in assay [1] (PBP3 Wildtype, β-lactamase None (empty vector), read-out: MIC), 32 µg/mL. Besides, the “changes in MIC values in the presence of β-lactamase” value in assay [1] (wildtype PBP3 strain, five overexpressed β-lactamases) was ≤ 2 fold. Besides, the “k inact/K i” value in assay [2] was 900 ± 300 ([3]) M^-1s^-1; in [3], 110 ± 20 ([3]) M^-1s^-1; in assay [4] (average ± SD), 700 ± 100 ([10]) M^-1s^-1; in assay [5] (average ± SD), 430 ± 30 ([2]) M^-1s^-1; in assay [6] (average ± SD), 510 ± 60 ([2]) M^-1s^-1; in assay [8] (average ± SD) it was 160 ± 20 ([2]) M^-1s^-1. Further, the “k inact/K i” value in [10] (average ± SD) is 460 ± 50 ([2]) M^-1s^-1. For the same compound, the “% WT” value in [4] is reported as 100%; in assay [5] it was 61.4%; in assay [6], 72.9%; in assay [7], 128.6%; in [8] it was 22.9%; in assay [9], 15.7%. Besides, the “% WT” value in assay [10] is given as 65.7%.

For `CC1=C[C@@H]2CN(C(=O)N2OS(=O)(=O)O)[C@@H]1C(N)=O` [durlobactam], the In vitro activity (MIC) in assay [11] (Parent (AB5075)) came out at 128 µg/mL; in assay [11] (adeA::tn in AB5075), 64 µg/mL; in [11] (adeB::tn in AB5075), 256 µg/mL; in assay [11] (adeC::tn in AB5075) it was 256 µg/mL; in [11] (adeI::tn in AB5075), 64 µg/mL; in [11] (adeJ::tn in AB5075), 32 µg/mL. For the same compound, the In vitro activity (MIC) in assay [11] (adeK::tn in AB5075) stood at 32 µg/mL; in [11] (adeT::tn in AB5075) it was 128 µg/mL. The “changes in MIC values as compared to the parent strain” value in assay [11] (adeK::Tn mutant, AB5075) is given as 4 fold; in [11] ({}), 4 fold. Further, the minimum inhibitory concentration (MIC) was determined as 32 µg/mL in [12] (setting [13]); 64 µg/mL in assay [12] (setting [14]); 128 µg/mL in assay [12] (setting [15]); 64 µg/mL in assay [12] (setting [16]); 64 µg/mL in [12] (setting [17]); 64 µg/mL in assay [12] (setting [18]). Also, the minimal inhibitory concentration (MIC) is 64 µg/mL in [12] (setting [19]); 64 µg/mL in [12] (setting [20]); 32 µg/mL in assay [12] (setting [21]); 128 µg/mL in [12] (setting [22]); 64 µg/mL in assay [12] (ΔadeL, AdeFGH overexpressed); 128 µg/mL in assay [12] (ΔadeN, AdeIJK overexpressed).

Turning to `CNC(C)C1CCC(N)C(OC2C(N)CC(N)C(OC3OCC(C)(O)C(NC)C3O)C2O)O1` (stereo not drawn) [gentamicin], the “MIC shift as compared to the parent strain” value is > 64 fold in assay [11] (AdeA disruption, AB5075) and > 8 fold in assay [11] (AdeB disruption, AB5075). The In vitro activity (MIC) is > 64 µg/mL in assay [11] (Parent (AB5075)); 1 µg/mL in assay [11] (adeA::tn in AB5075); 8 µg/mL in assay [11] (adeB::tn in AB5075); > 64 µg/mL in assay [11] (adeC::tn in AB5075); > 64 µg/mL in assay [11] (adeI::tn in AB5075); > 64 µg/mL in assay [11] (adeJ::tn in AB5075). Besides, the In vitro activity (MIC) in assay [11] (adeK::tn in AB5075) and in assay [11] (adeT::tn in AB5075) was > 64 µg/mL throughout. Moreover, the minimum inhibitory concentration (MIC) in assay [12] (setting [13]) is 32 µg/mL; in [12] (setting [14]), 16 µg/mL; in assay [12] (setting [15]), 2 µg/mL; in assay [12] (setting [16]), 16 µg/mL; in assay [12] (setting [17]), 16 µg/mL; in assay [12] (setting [18]), 32 µg/mL. The minimal inhibitory concentration (MIC) came to 2 µg/mL in assay [12] (setting [19]); 16 µg/mL in assay [12] (setting [20]); 32 µg/mL in [12] (setting [21]); 2 µg/mL in [12] (setting [22]); 2 µg/mL in [12] (ΔadeL, AdeFGH overexpressed); 2 µg/mL in assay [12] (ΔadeN, AdeIJK overexpressed). Besides, the “change in MIC values relative to the parent strain” value in assay [12] ({}) is 8- to 16 fold.

(Values after paper PMC10648852, “Molecular drivers of resistance to sulbactam-durlobactam in contemporary clinical isolates of Acinetobacter baumannii” (Antimicrobial Agents and Chemotherapy, 2023).)
